We go through five compounds from the NIST ThermoML archive (doi:10.1016/j.fluid.2006.10.024).

± gives the expanded uncertainty stated by the source.

For the series the following is noted: Liquid; for mass density: 101.33 kPa.

As for `C1CCOCC1` [tetrahydropyran], the mass density is 878.81 ± 1 kg/m3 (298.15 K), 863.67 ± 1.1 kg/m3 (313.15 K) and 848.29 ± 1.1 kg/m3 (328.15 K). For the same compound, the “vapor or sublimation pressure” value (298.15 K) amounted to 9.56 ± 0.15 kPa, the “vapor or sublimation pressure” value (313.15 K) came out at 18.66 ± 0.23 kPa and the “vapor or sublimation pressure” value (328.15 K) is given as 33.95 ± 0.35 kPa.

Consider `C1COCO1` [1,3-dioxolane], for which the mass density reads like this: (298.15 K) 1058.62 ± 0.85 kg/m3; (313.15 K) 1039.88 ± 0.76 kg/m3; (328.15 K) 1020.86 ± 0.67 kg/m3. The “vapor or sublimation pressure” value is, setting by setting: (298.15 K) 13.54 ± 0.18 kPa; (313.15 K) 26.83 ± 0.29 kPa; (328.15 K) 49.01 ± 0.47 kPa.

With `C1CCOC1` [tetrahydrofuran], the mass density is, setting by setting: (298.15 K) 881.95 ± 0.45 kg/m3; (313.15 K) 865.36 ± 0.49 kg/m3; (328.15 K) 848.68 ± 0.52 kg/m3. In addition, the “vapor or sublimation pressure” value runs as follows: (298.15 K) 21.61 ± 0.25 kPa; (313.15 K) 40.62 ± 0.4 kPa; (328.15 K) 70.61 ± 0.63 kPa.

Take `C1COCCO1` [1,4-dioxane]: the mass density amounted to 1027.87 ± 0.71 kg/m3 (298.15 K), 1010.69 ± 0.63 kg/m3 (313.15 K) and 993.75 ± 0.6 kg/m3 (328.15 K). The “vapor or sublimation pressure” value by setting is: (298.15 K) 4.9 ± 0.12 kPa; (313.15 K) 10.17 ± 0.16 kPa; (328.15 K) 19.54 ± 0.23 kPa.

As to `CCCCCCl` [1-chloropentane], the mass density runs as follows: (298.15 K) 877 ± 1 kg/m3; (313.15 K) 861.52 ± 1.1 kg/m3; (328.15 K) 846.33 ± 1.1 kg/m3. In addition, the “vapor or sublimation pressure” value is recorded as 4.055 ± 0.11 kPa (298.15 K), 8.45 ± 0.14 kPa (313.15 K) and 16.4 ± 0.21 kPa (328.15 K).

As a reminder, the mass density is the mass of a sample divided by its volume. The vapor or sublimation pressure is the equilibrium pressure above the liquid or solid.
